The record followed here is the Kinase Knowledgebase extract (Sharma et al. 2016).

In one assay the target is PIK3CB (Human) (UniProt P42338). The experiment in a line: Enzyme Assay.
Assay [1] concerns the target PIK3CD (Human) (UniProt O00329). The experiment in a line: Enzyme Assay.
In another assay the target is PIK3CG (human) (UniProt P48736). The experiment in a line: Enzyme Assay.
Assay [2] has as its target PIK3CD (Human) (UniProt O00329). The experiment in a line: Cell-Based Assay. The following applies: raji.

PIK3CD (Human), sequence (O00329 whole entry, looked up): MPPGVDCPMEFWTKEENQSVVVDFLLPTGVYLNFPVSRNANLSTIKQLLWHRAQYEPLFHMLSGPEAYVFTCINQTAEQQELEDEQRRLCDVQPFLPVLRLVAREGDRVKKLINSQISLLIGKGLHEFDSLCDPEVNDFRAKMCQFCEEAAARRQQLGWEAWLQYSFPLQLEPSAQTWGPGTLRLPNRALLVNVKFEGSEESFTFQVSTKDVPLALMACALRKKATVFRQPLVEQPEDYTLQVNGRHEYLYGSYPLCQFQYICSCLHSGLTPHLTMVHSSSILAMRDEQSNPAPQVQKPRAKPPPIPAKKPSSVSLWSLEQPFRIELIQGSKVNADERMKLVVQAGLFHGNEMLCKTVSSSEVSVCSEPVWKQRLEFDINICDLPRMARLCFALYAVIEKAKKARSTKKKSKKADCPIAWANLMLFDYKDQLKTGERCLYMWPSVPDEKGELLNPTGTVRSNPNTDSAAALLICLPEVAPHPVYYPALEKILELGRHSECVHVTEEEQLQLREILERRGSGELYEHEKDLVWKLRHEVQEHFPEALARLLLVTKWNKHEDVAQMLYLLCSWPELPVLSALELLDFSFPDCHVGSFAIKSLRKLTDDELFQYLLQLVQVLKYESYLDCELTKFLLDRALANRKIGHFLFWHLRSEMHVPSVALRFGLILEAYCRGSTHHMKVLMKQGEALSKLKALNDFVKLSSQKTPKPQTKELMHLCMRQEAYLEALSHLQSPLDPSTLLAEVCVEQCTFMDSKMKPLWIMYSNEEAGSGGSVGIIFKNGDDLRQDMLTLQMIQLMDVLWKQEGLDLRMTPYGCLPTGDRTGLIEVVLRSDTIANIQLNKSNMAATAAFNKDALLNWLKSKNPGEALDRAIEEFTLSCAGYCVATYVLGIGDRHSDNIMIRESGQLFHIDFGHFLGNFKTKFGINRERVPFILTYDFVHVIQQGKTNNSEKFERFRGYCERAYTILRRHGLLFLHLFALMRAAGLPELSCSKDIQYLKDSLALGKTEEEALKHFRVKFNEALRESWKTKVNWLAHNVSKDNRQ
PIK3CG (human), sequence (P48736 whole entry, looked up): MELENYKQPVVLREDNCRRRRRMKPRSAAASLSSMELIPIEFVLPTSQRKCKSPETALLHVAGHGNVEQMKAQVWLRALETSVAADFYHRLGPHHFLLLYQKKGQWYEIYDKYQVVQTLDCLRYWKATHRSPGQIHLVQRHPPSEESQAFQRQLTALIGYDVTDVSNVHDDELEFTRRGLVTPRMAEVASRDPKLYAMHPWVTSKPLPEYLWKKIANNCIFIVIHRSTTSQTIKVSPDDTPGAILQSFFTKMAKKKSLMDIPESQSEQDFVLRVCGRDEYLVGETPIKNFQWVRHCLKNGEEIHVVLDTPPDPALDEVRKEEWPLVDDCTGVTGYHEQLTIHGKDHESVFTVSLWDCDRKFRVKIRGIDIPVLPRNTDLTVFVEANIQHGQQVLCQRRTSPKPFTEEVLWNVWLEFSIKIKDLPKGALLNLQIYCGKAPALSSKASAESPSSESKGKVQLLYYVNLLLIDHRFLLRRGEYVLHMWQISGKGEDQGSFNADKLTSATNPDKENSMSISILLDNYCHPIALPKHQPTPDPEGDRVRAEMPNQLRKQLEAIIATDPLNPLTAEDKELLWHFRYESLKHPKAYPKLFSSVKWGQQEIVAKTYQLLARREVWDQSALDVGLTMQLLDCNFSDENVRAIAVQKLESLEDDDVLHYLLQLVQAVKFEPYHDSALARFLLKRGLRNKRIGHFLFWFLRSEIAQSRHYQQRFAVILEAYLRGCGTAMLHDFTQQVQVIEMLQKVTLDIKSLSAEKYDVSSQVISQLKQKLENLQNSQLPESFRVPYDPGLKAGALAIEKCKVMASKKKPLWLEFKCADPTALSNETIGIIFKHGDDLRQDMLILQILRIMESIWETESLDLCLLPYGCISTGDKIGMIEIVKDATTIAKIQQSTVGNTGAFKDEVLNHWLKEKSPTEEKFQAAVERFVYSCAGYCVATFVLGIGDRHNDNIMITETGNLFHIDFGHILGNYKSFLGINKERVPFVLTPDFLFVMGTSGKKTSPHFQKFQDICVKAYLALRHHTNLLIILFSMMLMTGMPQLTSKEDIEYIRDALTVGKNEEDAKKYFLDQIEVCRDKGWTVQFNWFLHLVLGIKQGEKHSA
PIK3CB (Human), sequence (P42338 whole entry, looked up): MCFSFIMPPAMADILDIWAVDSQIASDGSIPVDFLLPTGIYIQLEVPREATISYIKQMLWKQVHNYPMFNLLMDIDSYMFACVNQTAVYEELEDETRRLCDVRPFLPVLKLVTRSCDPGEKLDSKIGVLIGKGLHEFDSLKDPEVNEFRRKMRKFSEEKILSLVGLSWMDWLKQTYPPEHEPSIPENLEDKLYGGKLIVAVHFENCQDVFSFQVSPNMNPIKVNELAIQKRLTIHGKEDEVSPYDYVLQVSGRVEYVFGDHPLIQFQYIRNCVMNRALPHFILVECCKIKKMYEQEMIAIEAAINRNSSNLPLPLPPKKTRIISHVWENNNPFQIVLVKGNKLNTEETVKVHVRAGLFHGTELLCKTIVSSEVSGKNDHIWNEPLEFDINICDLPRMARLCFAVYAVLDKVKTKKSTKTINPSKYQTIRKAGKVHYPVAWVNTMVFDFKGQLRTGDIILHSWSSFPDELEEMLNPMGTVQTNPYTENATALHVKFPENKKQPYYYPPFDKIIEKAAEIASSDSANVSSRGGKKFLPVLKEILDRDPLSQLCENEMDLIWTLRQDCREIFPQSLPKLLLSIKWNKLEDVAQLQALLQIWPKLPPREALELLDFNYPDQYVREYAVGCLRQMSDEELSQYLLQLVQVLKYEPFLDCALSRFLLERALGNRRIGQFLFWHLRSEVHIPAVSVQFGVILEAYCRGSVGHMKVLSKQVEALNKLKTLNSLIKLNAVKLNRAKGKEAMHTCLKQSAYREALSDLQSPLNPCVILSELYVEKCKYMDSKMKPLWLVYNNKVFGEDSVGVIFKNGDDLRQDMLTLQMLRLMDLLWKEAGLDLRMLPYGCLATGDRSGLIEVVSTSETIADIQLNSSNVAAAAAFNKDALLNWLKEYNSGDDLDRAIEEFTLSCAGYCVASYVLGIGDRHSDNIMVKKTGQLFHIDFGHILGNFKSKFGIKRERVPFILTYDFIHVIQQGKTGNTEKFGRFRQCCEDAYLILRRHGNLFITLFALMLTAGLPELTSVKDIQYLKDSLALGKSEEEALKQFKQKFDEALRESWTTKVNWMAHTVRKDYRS

As to `Cc1cnc(C(=O)N[C@@H](C)c2cc3cccc(C#Cc4cnn(C)c4)c3c(=O)n2-c2ccccc2)c(N)n1`, the IC50 against PIK3CB (Human) is 5 to 10 µM; on PIK3CD (Human) [1], 5 to 10 µM; on PIK3CG (human), 1 to 5 µM; on PIK3CD (Human) [2], 1 to 10 µM.

As for `Cc1csc(C#Cc2cccc3cc([C@H](C)NC(=O)c4c(N)nn5cccnc45)n(-c4ccccc4)c(=O)c23)n1`, the IC50 fell in the range of 5 to 10 µM on PIK3CB (Human), 5 to 10 µM against PIK3CD (Human) [1], 0.1 to 0.5 µM at PIK3CG (human) and 0.1 to 0.5 µM at PIK3CD (Human) [2].

With `C[C@H](NC(=O)c1c(N)nn2cccnc12)c1cc2cccc(C#Cc3cnn(C)c3)c2c(=O)n1CCS(=O)(=O)N(C)C`, the IC50 on PIK3CB (Human) was 1 to 5 µM; against PIK3CD (Human) [1], 5 to 10 µM; on PIK3CG (human), 0.001 to 0.1 µM.

Take `C#Cc1cccc2nc([C@H](C)NC(=O)c3c(N)nn4cccnc34)n(C)c(=O)c12`: the IC50 against PIK3CB (Human) is 0.5 to 1 µM; against PIK3CD (Human) [1], 1 to 5 µM; on PIK3CG (human), 0.5 to 1 µM; on PIK3CD (Human) [2], 0.001 to 0.1 µM.

Consider `C[C@H](NC(=O)c1c(N)nn2cccnc12)c1cc2cccc(C#CC3(O)CN4CCC3CC4)c2c(=O)n1-c1ccccc1` (stereo partly specified), for which the IC50 on PIK3CB (Human) lay within 5 to 10 µM; against PIK3CD (Human) [1], 5 to 10 µM; at PIK3CG (human) it was 0.5 to 1 µM; against PIK3CD (Human) [2], 1 to 10 µM.

Take `COc1ncc(C#Cc2cccc3cc([C@H](C)NC(=O)c4c(N)nn5cccnc45)n(-c4ccccc4)c(=O)c23)cn1`: the IC50 was in the range of 5 to 10 µM against PIK3CB (Human), 5 to 10 µM on PIK3CD (Human) [1], 0.1 to 0.5 µM at PIK3CG (human) and 0.1 to 0.5 µM on PIK3CD (Human) [2].

For `C[C@H](NC(=O)c1c(N)nn2cccnc12)c1cc2cccc(N)c2c(=O)n1-c1ccccc1`, the results for the IC50 on PIK3CB (Human), against PIK3CD (Human) [1] and against PIK3CG (human) were 1 to 5 µM, 1 to 5 µM and 0.001 to 0.1 µM, respectively.

In the case of `Cc1ccccc1-n1c([C@H](C)NC(=O)c2c(N)nn3cccnc23)cc2cccc(C#Cc3cnn(C)c3)c2c1=O`, the IC50 against PIK3CB (Human) is 5 to 10 µM; on PIK3CD (Human) [1], 5 to 10 µM; at PIK3CG (human), 0.001 to 0.1 µM.

Regarding `CC[C@H](NC(=O)c1c(N)nn2cccnc12)c1cc2cccc(C#Cc3cnn(C)c3)c2c(=O)n1-c1ccccc1`, the IC50 at PIK3CB (Human) was 5 to 10 µM; at PIK3CD (Human) [1] it was 5 to 10 µM; at PIK3CG (human), 0.001 to 0.1 µM.

Turning to `C#Cc1cccc2nc([C@H](C)NC(=O)c3nccnc3N)n(-c3ccccc3)c(=O)c12`, the IC50 against PIK3CB (Human) lay within 0.001 to 0.5 µM; at PIK3CD (Human) [1], 0.001 to 0.5 µM; at PIK3CG (human), 0.001 to 0.1 µM.

As for `Cc1nnc(C#Cc2cccc3cc([C@H](C)NC(=O)c4c(N)nn5cccnc45)n(-c4ccccc4)c(=O)c23)s1`, the IC50 against PIK3CB (Human) lay within 1 to 5 µM; on PIK3CD (Human) [1] it was 1 to 5 µM; against PIK3CG (human) it was 0.1 to 0.5 µM.

As for `C[C@H](NC(=O)c1c(N)nn2cccnc12)c1nc2cccc(C#Cc3cnn(C)c3)c2c(=O)n1-c1ccccc1`, the IC50 lay within 5 to 10 µM on PIK3CB (Human), 5 to 10 µM at PIK3CD (Human) [1] and 0.1 to 0.5 µM at PIK3CD (Human) [2].

In the case of `C[C@H](NC(=O)c1c(N)nn2cccnc12)c1cc2cccc(C#Cc3cnn(C)c3)c2c(=O)n1-c1ccc(F)c(F)c1`, the IC50 on PIK3CB (Human) was in the range of 5 to 10 µM; against PIK3CD (Human) [1], 5 to 10 µM; at PIK3CG (human), 0.1 to 0.5 µM.

Consider `Cn1cc(C#Cc2cccc3cc(CNC(=O)c4c(N)nn5cccnc45)n(-c4ccccc4)c(=O)c23)cn1`, for which the values for the IC50 at PIK3CB (Human), at PIK3CD (Human) [1] and at PIK3CG (human) were 5 to 10 µM, 5 to 10 µM and 1 to 5 µM, respectively.

Consider `Cc1cccc(-n2c([C@H](C)NC(=O)c3c(N)nn4cccnc34)cc3cccc(C#Cc4cnn(C)c4)c3c2=O)c1`, for which the IC50 at PIK3CB (Human) lay in the range of 5 to 10 µM; against PIK3CD (Human) [1] it was 5 to 10 µM; against PIK3CG (human) it was 0.1 to 0.5 µM.

`CC(C)n1c([C@H](C)NC(=O)c2c(N)nn3cccnc23)cc2cccc(C#Cc3cnn(C)c3)c2c1=O`: the IC50 fell in the range of 5 to 10 µM on PIK3CB (Human), 5 to 10 µM against PIK3CD (Human) [1] and 0.5 to 1 µM against PIK3CG (human).

On to `C[C@H](NC(=O)c1c(N)nn2cccnc12)c1cc2cccc(C#Cc3cnn(C)c3)c2c(=O)n1-c1cccc(F)c1`, for which the results for the IC50 on PIK3CB (Human), on PIK3CD (Human) [1] and against PIK3CG (human) were 5 to 10 µM, 5 to 10 µM and 0.001 to 0.1 µM, respectively.

With `Cc1ccn2nc(N)c(C(=O)N[C@@H](C)c3cc4cccc(C#Cc5cnn(C)c5)c4c(=O)n3-c3ccccc3)c2n1`, the figures for the IC50 against PIK3CB (Human), at PIK3CD (Human) [1] and against PIK3CG (human) were 1 to 5 µM, 5 to 10 µM and 0.001 to 0.1 µM, respectively.

Turning to `CNS(=O)(=O)CCn1c([C@H](C)NC(=O)c2c(N)nn3cccnc23)cc2cccc(C#Cc3cnn(C)c3)c2c1=O`, the IC50 fell in the range of 1 to 5 µM on PIK3CB (Human), 5 to 10 µM on PIK3CD (Human) [1] and 0.001 to 0.1 µM on PIK3CG (human).

In the case of `Cc1ccc(-n2c([C@H](C)NC(=O)c3c(N)nn4cccnc34)cc3cccc(C#Cc4cnn(C)c4)c3c2=O)cc1`, the IC50 against PIK3CB (Human) lay in the range of 5 to 10 µM; against PIK3CD (Human) [1], 5 to 10 µM; on PIK3CG (human), 0.1 to 0.5 µM.

Take `C[C@H](NC(=O)c1c(N)nn2cccnc12)c1cc2cccc(C#Cc3cnn(C)c3)c2c(=O)n1C`: the IC50 at PIK3CB (Human) was in the range of 0.5 to 1 µM; at PIK3CD (Human) [1], 5 to 10 µM; at PIK3CG (human) it was 0.1 to 0.5 µM.

With `Cc1ccnc2c(C(=O)N[C@@H](C)c3cc4cccc(C#Cc5cnn(C)c5)c4c(=O)n3-c3ccccc3)cnn12`, the results for the half-maximal inhibitory concentration (IC50) on PIK3CB (Human), against PIK3CD (Human) [1] and on PIK3CG (human) were 5 to 10 µM, 5 to 10 µM and 0.1 to 0.5 µM, respectively.

The IC50 is the point on the concentration scale where inhibition reaches its midpoint. High values mean weaker potency in that assay, low ones greater potency in that assay.
